Assay type in all cases: cell-based, human
Assay [1] concerns MDA-MB-231 cells. The assay can be described thus: CyQUANT cell number after 2 h exposure and wash-out. As to conditions: 50 μM, 2 h exposure then wash-out. The protocol:
FIG. 19A-E. Combination of cisplatin and mdivi-1 produces synergistic pro-apoptotic effect in multidrug resistant tumor cells. (A) MDA-MB-231 cells were treated with increasing doses of mdivi-1 for 72 h. The survival was assessed by MTS assay. […] (B) MDA-MB-231 cells were treated with increasing doses of cisplatin alone or the combination with 20 μM or 50 μM of mdivi-1 for 72 h. The survival was assessed by MTS assay. (C) MDA-MB-231 cells were exposed to cisplatin and mdivi-1 alone or combination at their IC50 or 0.5 fold of their IC50. The combination index (CI) and the normalized isobologram were generated using CompuSyn. (D) MDA-MB-231 cells were treated with DMSO, 50 μM cisplatin alone, 50 μM mdivi-1 alone, or the combination for 2 h. The compounds were then washed out and the cell number was determined every 24 h by CyQuant assay. (E) MDA-MB-231 cells were treated with agents alone, or the combination at a ratio of 1:1 for 20 h. The number of apoptotic cells was determined with antibody recognizing cleaved caspase-3 followed by flow cytometry.
To explore this effect further, MDA-MB-231 cells were treated with DMSO as a vehicle control, 50 μM of cisplatin, 50 μM of mdivi-1, or 50 μM of cisplatin plus 50 μM of mdivi-1 for 2 hours. The cells were then washed with growth media and plated in black 96-well plates. Survivals were measured by CyQUANT assay. Data represent mean±SD. n=4 wells. […]

Assay [2] has as its system MDA-MB-231 cells. Description: Cell cycle analysis by anti-BrdU, anti-phospho-Histone H3 and PI staining. As to conditions: 20 μM, 20 h. The protocol: (§1) FIG. 22A-E. Mdivi-1 inhibits DNA replication and its combination with cisplatin enhances replication stress leading to efficient G2 phase arrest of the cell cycle. (A) MDA-MB-231 cells were treated with cisplatin alone, mdivi-1 alone or the combination at the indicated concentrations for 4 h. Western blot was then performed to detect the phosphorylation status of key proteins involved in DNA damage response. (B) MDA-MB-231 cells were treated with 20 μM cisplatin alone, 20 μM mdivi-1 alone or the combination for 20 h. The distribution of cell cycle was determined by triple staining of the cells with anti-BrdU, anti-phospho-Histone H3 and PI. (C) Quantification of the distribution of cell cycle analyzed in panel B. (D) The effect of mdivi-1 on the rate of DNA synthesis was analyzed by a histogram, which was generated from the data obtained in panel B, showing the changes of BrdU intensity. (E) Cells were treated as described in B and γ-H2AX was analyzed by western blot.
Cells were treated with 20 μM cisplatin, 20 μM mdivi-1, or the combination of 20 μM cisplatin and 20 μM mdivi-1 for 20 h. S phase cells were then pulse-labeled with 10 μM BrdU for 30 min at 37° C. Cells were trypsinized, fixed in 70% ice-cold ethanol, and incubated overnight at 4° C. DNA was denatured in 2 N HCl containing 0.5% Triton X-100, and neutralized with 0.1 M Na2B4O7. Cells were then stained with FITC-labeled anti-BrdU antibody (BD Biosciences, San Jose, Calif.). To determine the number of cells in mitosis, cells were then stained with Alexa Fluor 647-conjugated phospho-Histone H3 (Ser 10) antibody (Cell signaling technology). To measure DNA content, cells were incubated in PI solution (PBS containing 50 μg/ml of PI and 40 μg/ml of RNase A) for 30 min at room temperature. Samples were analyzed on a CyAn ADP Analyzer (Beckman Coulter, Brea, Calif.). Data were analyzed using Summit software.

Assay [3] has as its system MDA-MB-231 cells. The assay can be described thus: Western blot of DNA damage response proteins. The following applies: 4 h; mdivi-1 alone at 50 μM. The protocol: as §1
Whole cell lysate was prepared by lysing cells in cell lysis buffer (Cell signaling technology) containing complete protease inhibitor (Roche). Cell lysates were then cleared at 15,000 rpm for 15 min at 4° C. […] The protein content was quantified using a Bio-Rad Protein Assay kit (Bio-Rad Laboratories, Hercules, Calif.). […]

Molecules are shown by their SMILES.

On to `COc1cc(-n2c(=S)[nH]c3ccccc3c2=O)c(Cl)cc1Cl` [mdivi-1], for which, in assay [1], the “effect on cell growth / survival after short exposure” value was “reversible”. Also, in assay [2], the “BrdU incorporation into DNA” value is reported as “substantially decreased” and the S phase cells is reported as 44.23%. Moreover, the “phosphorylation / activation of Chk1” value in assay [3] was “induced activation of Chk1”.

In the case of `N.N.[Cl][Pt][Cl]` [cisplatin], the “effect on cell growth / survival after short exposure” value in assay [1] was “only slightly slowed down cell growth”. For the same molecule, in assay [2], the “BrdU incorporation into DNA” value is “abolished the uptake of BrdU” and the G2 phase cells turned out to be 18.97%. Also, the “phosphorylation / activation of Chk1” value in assay [3] was “phosphorylated”.

Values taken from patent US9492450B2, “Inhibition of dynamin related protein 1 to promote cell death” (University of Pittsburgh—of the Commonwealth System of …, priority 2011, dated 2016).
